Reference: patent US20100105745A1, “Suppression of cancer and method for evaluating anticancer agent based on the effect of inhibiting gsk3 beta” (priority 2005, published 2010)

Tests used:
[1] = tested on: glioblastoma cell line (A172, T98G, U251, and U87); experiment: WST-8 viable cell assay; format: cell-based, human; details: 5-50 μM, compared with DMSO, FIGS. 9, 10A
Method: In this example, 4 types of glioblastoma cell line (A172, T98G, U251, and U87 purchased from American Type Culture Collection [ATCC, Manassas, Va.]) and human embryonic kidney cells HEK293 were used as subjects. The expression of GSK3β and the expression of its fractions that had undergone phosphorylation in these cell lines were analyzed in accordance with <Example 1>. Furthermore, the effects of a known GSK3β inhibitor (AR-A014418 or SB-216763) on the survival, proliferation, and apoptosis of tumor cells were analyzed in a manner similar to that in the case of colon cancer cells. […] Number of viable cells and apoptosis frequencies were measured over time. As controls, number of viable cells and apoptosis frequencies were also measured for cells that had been cultured after addition of the same amount of DMSO. In addition, unlike <Example 1>, a WST-8** assay kit (Cell Counting Kit-8, Wako, Osaka) and a microplate reader produced by Bio-Rad Laboratories, Inc. (Hercules, Calif.) were used for measurement of number of viable cells. Furthermore, regarding cell fractions during the proliferation phase, the number of cells incorporating bromodeoxy uridine (BrdU) was measured using a Cell Proliferation ELISA BrdU Kit (Roche, Panzberg, Germany), and then the influence of the GSK3β inhibitor (AR-A014418 or SB-216763) on the proliferation of tumor cells was analyzed.

HEK293 cells [2] = experiment: Apoptosis frequency; format: cell-based, human; details: compared with DMSO, FIG. 10B
Method: (§1) In this example, 4 types of glioblastoma cell line (A172, T98G, U251, and U87 purchased from American Type Culture Collection [ATCC, Manassas, Va.]) and human embryonic kidney cells HEK293 were used as subjects. The expression of GSK3β and the expression of its fractions that had undergone phosphorylation in these cell lines were analyzed in accordance with <Example 1>. Furthermore, the effects of a known GSK3β inhibitor (AR-A014418 or SB-216763) on the survival, proliferation, and apoptosis of tumor cells were analyzed in a manner similar to that in the case of colon cancer cells. Each cell line was cultured overnight and then cultured in medium to which AR-A014418 or SB-216763 dissolved in DMSO had been added to predetermined concentrations (5 μM, 10 μM, 25 μM or 40 μM, and 50 μM). Number of viable cells and apoptosis frequencies were measured over time. As controls, number of viable cells and apoptosis frequencies were also measured for cells that had been cultured after addition of the same amount of DMSO. In addition, unlike <Example 1>, a WST-8** assay kit (Cell Counting Kit-8, Wako, Osaka) and a microplate reader produced by Bio-Rad Laboratories, Inc. (Hercules, Calif.) were used for measurement of number of viable cells. Furthermore, regarding cell fractions during the proliferation phase, the number of cells incorporating bromodeoxy uridine (BrdU) was measured using a Cell Proliferation ELISA BrdU Kit (Roche, Panzberg, Germany), and then the influence of the GSK3β inhibitor (AR-A014418 or SB-216763) on the proliferation of tumor cells was analyzed.

[3] = tested on: glioblastoma cell line (A172, T98G, U251, and U87); experiment: Apoptosis frequency; format: cell-based, human; details: glioblastoma cells; compared with DMSO; FIG. 10B
Method: as §1

[4] = tested on: Colon cancer cell lines (SW480 and HCT116); experiment: MTS viable cell assay (cell survival); format: cell-based, human; details: 5, 10, 25, and 50 μM, 24-96 hours, FIG. 4A
Method: (§2) Each colon cancer cell line and HEK293 cells were seeded at 3×10^3 cells per well of 96-well culture plates and then cultured overnight in corresponding media (this day was designated day 0). Known GSK3β inhibitors, AR-A014418 (N-(4-methoxybenzyl)-N′-(5-nitro-1,3-thiazol-2-yl)urea, Calbiochem) and SB-216763 (3-(2,4-dichlorophenyl)-4-(1-methyl-1H-indol-3-yl)-1H-pyrrole-2,5-dione, Sigma-Aldrich) were dissolved in dimethyl sulfoxide (DMSO). On day 0, the medium for each cell line were exchanged and then AR-A014418 or SB-216763 was added to the medium to different concentrations (5, 10, 25, and 50 μM). As controls, samples prepared by adding AR-A014418 or SB-216763 to the same concentrations to wells containing no cells and a sample prepared by adding DMSO alone to a well containing cells were analyzed simultaneously.
(§3) At time points after indicated lengths of the times (24, 48, 72, and 96 hours) had elapsed from day 0, the number of viable cells in each well was measured using an MTS* viable cell measurement kit (CellTiter 96™ Aqueous, Promega Corp) in accordance with the protocols of Promega. Practically, 20 μL of an MTS mixture solution that had been prepared immediately before addition was added to each well, followed by three hours of reaction at 37° C. under 5% CO2 wet conditions. Absorbance at a wavelength of 490 nm was measured using a THERMOmax microplate reader (Molecular Devices). The number of cells of each cell line (in 6 wells for treatment by each concentration of AR-A014418 or SB-216763) was measured, and the average absorbance was calculated to determine the number of viable cells.

HEK293 cells [5] = experiment: MTS viable cell assay (cell survival); format: cell-based, human; details: FIG. 4A
Method: as §2, §3

[6] = tested on: telomerase activity in HEK293 cells; experiment: Telomerase activity (TRAPEZE Telomerase Detection Kit); format: cell-based, human; details: 25 μM inhibitor, FIG. 14
Method: (§4) In accordance with <Example 1>, each colon cancer cell line (SW480 and HCT116) and a non-cancer cell line (human embryonic kidney cells HEK293) were treated with a 25 μM GSK3β inhibitor (AR-A014418 or SB-216763) or GSK3β-specific RNA interference. As controls, DMSO was administered to these cells or the cells were treated with non-specific RNA interference. Subsequently, the frequency of senescent cells in control cells was compared with that in the corresponding cells in which GSK3β had been inhibited and then the result was analyzed. Furthermore, human telomerase reverse transcriptase (hTERT) mRNA expression that is a molecular indication of cell immortalization and changes in telomerase activity in these cells were compared and analyzed over time.
(§5) hTERT mRNA expression was analyzed by extracting total RNA from subject cells and then performing the RT-PCR method. An upstream primer (5′-[…]-3′: SEQ ID NO: 3) and a downstream primer (5′-GGATGAAGCGGAGTCTGGA-3′: SEQ ID NO: 4) were used for RT-PCR. The hTERT gene was amplified by performing 36 or 38 cycles of an RT-PCR program (15 seconds at 94° C., 10 seconds at 55° C., and 9 seconds at 72° C.). Telomerase activity was detected in accordance with recommended protocols using a commercial kit (TRAPEZE® Telomerase Detection Kit, Chemicon International). hTERT expression levels and telomerase activity in GSK3β-inhibited cells and control cells were determined via measurement and quantification of signals on electrophoresis using a densitometer (NIH Image Software), followed by comparison and analysis thereof.

[7] = tested on: telomerase activity in colon cancer cell lines (SW480 and HCT116); experiment: as above; format: cell-based, human; details: 25 μM inhibitor, 72 or 96 hours, FIG. 14
Method: as §4, §5

colon cancer cells = experiment: Apoptosis (Hoechst staining) and proliferation (PCNA labeling index) by double staining; format: cell-based, human; details: for cellular proliferation rates (PCNA labeling index): FIG. 4D; for apoptosis frequency: Hoechst staining, FIG. 4C
Method: (§6) A, B, and E: The number of viable cells in each well as measured by MTS assay at points in time at which the indicated lengths of the time (24, 48, 72, and 96 hours) had elapsed since day 0. C and D: The proportion (D) of proliferating cells' nuclei (PCNA positive) in all the cells observed or the proportion (C) of nuclei undergoing apoptosis in all the cells observed when the cells were subjected to double staining by an immunofluorescence method using an anti-PCNA (proliferating cell nuclear antigen) antibody and Hoechst and then observed under a fluorescence microscope.

HEK293 cells [8] = experiment: as above; format: cell-based, human; details: for changes in apoptosis frequency: FIG. 4C; for changes in cellular proliferation rates (PCNA labeling index): FIG. 4D
Method: as §6

[9] = tested on: colon cancer cell line (SW480 and HCT116); experiment: Cellular senescence by x-gal staining; format: cell-based, human; details: colon cancer cell lines; 25 μM; 72 hours; compared with DMSO; FIGS. 11 and 12
Method: (§7) In accordance with <Example 1>, each colon cancer cell line (SW480 and HCT116) and a non-cancer cell line (human embryonic kidney cells HEK293) were treated with a 25 μM GSK3β inhibitor (AR-A014418 or SB-216763) or GSK3β-specific RNA interference. As controls, DMSO was administered to these cells or the cells were treated with non-specific RNA interference. Subsequently, the frequency of senescent cells in control cells was compared with that in the corresponding cells in which GSK3β had been inhibited and then the result was analyzed. Furthermore, human telomerase reverse transcriptase (hTERT) mRNA expression that is a molecular indication of cell immortalization and changes in telomerase activity in these cells were compared and analyzed over time. Senescent cells were determined as cells found to be positive for x-gal staining that is an indicator of (3-galactosidase activity. Practically, for this staining, cells cultured on cover glasses were washed with phosphate buffered saline (PBS) and then fixed using a citrate.phosphate fixation solution (0.1 M citric acid, 0.2 M Na2HPO4, pH 6.0) at room temperature for 5 minutes. Subsequently, cells were washed twice with PBS and then caused to react using a x-gal staining solution (1 mg/mL x-gal [Sigma-Aldrich], 5 mM K3Fe[CN]6, 2 mM MgCl2, 150 mM NaCl, 30 mM citrate.phosphate buffer, and 5 mM K4Fe[CN]6) at 37° C. for 20 hours. Stained cells were washed with PBS and then fixed again with 4% paraformaldehyde. X-gal staining positive cells were identified by observation under a light microscope. The frequency of senescent cells was determined by observing 5 high-power fields and measuring and calculating the average frequency of x-gal staining positive cells in the total number of cells (approximately 100 cells) in each field.

HEK293 cells [10] = experiment: Cellular senescence by x-gal staining; format: cell-based, human; details: 25 μM, 72 hours, compared with DMSO
Method: as §7

[11] = tested on: human telomerase reverse transcriptase (hTERT) in HEK293 cells; experiment: hTERT mRNA expression by RT-PCR; format: cell-based; details: 25 μM inhibitor, FIG. 13
Method: as §4, §5

[12] = tested on: human telomerase reverse transcriptase (hTERT) in colon cancer cell lines (SW480 and HCT116); experiment: hTERT mRNA expression by RT-PCR; format: cell-based; details: 25 μM inhibitor, 72 or 96 hours, FIG. 13
Method: as §4, §5

[13] = molecular target: GSK3β immunoprecipitated from colon cancer cell lines (SW480 and HCT116) (Homo sapiens, UniProt P49841); experiment: Non-radioisotopic in vitro GSK3β enzyme activity assay; format: biochemical; details: 25 μM, compared with DMSO, FIG. 19
Sequence of GSK3β immunoprecipitated from colon cancer cell lines (SW480 and HCT116) (P49841 whole entry): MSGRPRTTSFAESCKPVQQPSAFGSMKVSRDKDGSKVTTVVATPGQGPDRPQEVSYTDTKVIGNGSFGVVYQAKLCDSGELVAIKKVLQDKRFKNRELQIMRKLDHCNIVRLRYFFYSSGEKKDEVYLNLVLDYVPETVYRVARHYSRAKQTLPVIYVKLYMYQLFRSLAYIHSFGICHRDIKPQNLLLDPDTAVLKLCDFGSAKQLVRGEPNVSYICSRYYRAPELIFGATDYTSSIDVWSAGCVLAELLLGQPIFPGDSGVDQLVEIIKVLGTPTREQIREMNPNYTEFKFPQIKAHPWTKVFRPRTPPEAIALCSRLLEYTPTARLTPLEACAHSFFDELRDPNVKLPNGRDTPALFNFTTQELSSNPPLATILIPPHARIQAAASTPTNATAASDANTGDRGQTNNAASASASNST
Method: First, a specific anti-GSK3β antibody and beads (resins) are added to a cell extract and then the GSK3β protein is immunoprecipitated (S in FIG. 16). As a negative control (control), non-specific mouse IgG with the same concentration is added to the same type of cell extract (C in FIG. 16). Next, in the presence of a kinase buffer, a recombinant human β-catenin protein (substrate) and nonradioactive ATP (P in FIG. 16) are added, and then a phosphorylation reaction is performed. Subsequently, the reaction solution is analyzed by the Western blot method. A phosphorylated human β-catenin protein is detected using an anti-phosphorylate β-catenin peptides antibody. […] In accordance with the methods in <Example 1>, the protein was extracted from each cell line using a cell lysis buffer (0.2 M Tris-HCl pH 7.5, 1.5 M NaCl, 10 mM EDTA, 10 mM EGTA, 10% Triton X-100, 25 mM sodium pyrophosphate, 10 mM β-glyceophosphate, 10 mM Na3VO4, and Protease inhibitors cocktail [Sigma-Aldrich]). […] Next, GSK3β and the recombinant human β-catenin protein in the reaction solutions were similarly detected by the Western blot method. […] These reaction solutions were similarly analyzed by the Western blot method.

[14] = tested on: glioblastoma cell line (A172, T98G, U251, and U87); experiment: Cell Proliferation ELISA BrdU incorporation; format: cell-based, human; details: glioblastoma cells; FIG. 10C
Method: Each cell line was cultured overnight and then cultured in medium to which AR-A014418 or SB-216763 dissolved in DMSO had been added to predetermined concentrations (5 μM, 10 μM, 25 μM or 40 μM, and 50 μM). Number of viable cells and apoptosis frequencies were measured over time. As controls, number of viable cells and apoptosis frequencies were also measured for cells that had been cultured after addition of the same amount of DMSO. In addition, unlike <Example 1>, a WST-8** assay kit (Cell Counting Kit-8, Wako, Osaka) and a microplate reader produced by Bio-Rad Laboratories, Inc. (Hercules, Calif.) were used for measurement of number of viable cells. Furthermore, regarding cell fractions during the proliferation phase, the number of cells incorporating bromodeoxy uridine (BrdU) was measured using a Cell Proliferation ELISA BrdU Kit (Roche, Panzberg, Germany), and then the influence of the GSK3β inhibitor (AR-A014418 or SB-216763) on the proliferation of tumor cells was analyzed.

GSK3β activity (phosphorylation of recombinant human β-catenin) [13]	Structure (SMILES)	number of viable cells [1]	apoptosis (HEK293 cells [2])	apoptosis [3]	survival (rate) of cells [4]	effect to suppress cell survival (HEK293 cells [5])	telomerase activity [6]	telomerase activity [7]	cellular proliferation rates (PCNA labeling index) (colon cancer cells)	apoptosis frequency (colon cancer cells)	changes in apoptosis frequency (HEK293 cells [8])	changes in cellular proliferation rates (PCNA labeling index) (HEK293 cells [8])	frequencies of senescent cells (x-gal staining positive) [9]	frequency of senescent cells (x-gal staining positive) (HEK293 cells [10])	hTERT expression [11]	hTERT expression [12]	proliferation (BrdU incorporated) [14]
completely inhibited	COc1ccc(CNC(=O)Nc2ncc([N+](=O)[O-])s2)cc1 [AR-A014418, N-(4-methoxybenzyl)-N′-(5-nitro-1,3-thiazol-2-yl)urea]	decreased in a manner depending on the concentration of each inhibitor	mildly induced by the addition of the GSK3β inhibitor to the medium, but no significant differences were observed	significantly induced	decreased in a manner depending on the dose	not observed	nor suppression of telomerase activity	suppressed	lowered	increased	minimal	minimal	significantly increased	no significant differences	neither changes in hTERT expression	suppressed	suppressed
completely inhibited	Cn1cc(C2=C(c3ccc(Cl)cc3Cl)C(=O)NC2=O)c2ccccc21 [SB-216763, 3-(2,4-Dichlorophenyl)-4-(1-methyl-1H-indol-3-yl)-1H-pyrrole-2,5-dione]	decreased in a manner depending on the concentration of each inhibitor	mildly induced by the addition of the GSK3β inhibitor to the medium, but no significant differences were observed	significantly induced	decreased in a manner depending on the dose	not observed	nor suppression of telomerase activity	suppressed	lowered	increased	minimal	minimal	significantly increased	no significant differences	neither changes in hTERT expression	suppressed	suppressed
